pEC50: −log10 of the molar value. Where a name gives a salt, the structure may show the parent alone.
Target: T1, murine Nurr1 receptor (Mus musculus, UniProt Q06219)
T1 construct: a cell line (N2A) endogenously expressing the murine Nurr1 receptor; host or cells: Neuro-2A (N2A) mouse neuroblastoma cells stably transfected with 8NBRE-luciferase
Assay: In vitro activity on N2A cells (8NBRE-luciferase reporter)
Type: cell-based
Conditions: N2A cell line endogenously expressing murine Nurr1, stably transfected with NBRE-luciferase; 24 hours incubation
Description: Evaluation of the In Vitro Activity on N2A Cells
The activity of the compounds according to the invention was evaluated on a cell line (N2A) endogenously expressing the murine Nurr1 receptor and stably transfected with the NOT binding response element (NBRE) coupled to the luciferase reporter gene. The EC50 values are between 0.01 and 1000 nM. The tests were performed according to the procedure described hereinbelow.
The cell line Neuro-2A is obtained from a standard commercial source (ATCC). The clone Neuro-2A was obtained from a spontaneous tumour originating from a strain of albino mice A by R. J Klebe et al. This line Neuro-2A is then stably transfected with 8NBRE-luciferase. The N2A-8NBRE cells are cultured to the point of confluence in 75 cm^2 culture flasks containing DMEM supplemented with 10% foetal calf serum, 4.5 g/L of glucose and 0.4 mg/ml of geneticin. After culturing for one week, the cells are recovered with 0.25% trypsin for 30 seconds and then resuspended in DMEM without phenol red, containing 4.5 g/L of glucose and 10% Hyclone defatted serum, and placed in white, transparent-based 96-well plates. The cells are deposited at a rate of 60 000 per well in 75 μL for 24 hours before adding the products. The products are applied in 25 μL and incubated for a further 24 hours. On the day of measurement, an equivalent volume (100 μL) of Steadylite is added to each well, and the wells are then left for 30 minutes to obtain complete lysis of the cells and maximum production of the signal. The plates are then measured in a microplate luminescence counter, after having been sealed with an adhesive film. The products are prepared in the form of a 10^−2 M stock solution, and then diluted in 100% of DMSO. Each concentration of product is prediluted in culture medium before incubation with the cells thus containing 0.625% final of DMSO.

T1 sequence (Q06219 whole entry): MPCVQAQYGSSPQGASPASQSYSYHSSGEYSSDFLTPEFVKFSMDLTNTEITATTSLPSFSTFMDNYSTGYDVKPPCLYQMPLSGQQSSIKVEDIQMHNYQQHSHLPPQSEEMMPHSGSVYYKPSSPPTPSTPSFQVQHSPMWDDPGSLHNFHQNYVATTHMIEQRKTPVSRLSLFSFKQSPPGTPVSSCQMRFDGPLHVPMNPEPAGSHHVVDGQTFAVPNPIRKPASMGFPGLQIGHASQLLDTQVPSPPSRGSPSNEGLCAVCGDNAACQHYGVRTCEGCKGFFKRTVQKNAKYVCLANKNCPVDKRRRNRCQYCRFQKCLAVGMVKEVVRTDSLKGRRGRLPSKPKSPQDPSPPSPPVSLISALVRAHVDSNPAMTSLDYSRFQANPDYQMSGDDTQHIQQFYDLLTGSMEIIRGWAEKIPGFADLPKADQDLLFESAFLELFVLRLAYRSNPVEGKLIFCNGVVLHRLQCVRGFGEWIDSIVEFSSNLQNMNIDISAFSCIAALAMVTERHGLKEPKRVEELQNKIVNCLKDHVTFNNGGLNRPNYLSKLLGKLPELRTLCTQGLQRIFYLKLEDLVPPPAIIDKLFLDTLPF

pEC50	Molecule
8.70	CSc1ccc2nc(C(=O)Nc3ccccc3)cn2c1 [Example 14, 6-(Methylthio)-N-phenylimidazo[1,2-a]pyridine-2-carboxamide and its hydrobromide (1:1)]
7.80	CS(=O)(=O)c1ccc2nc(C(=O)Nc3ccccc3)cn2c1 [Example 16, 6-(Methylsulfonyl)-N-phenylimidazo[1,2-a]pyridine-2-carboxamide and its hydrobromide (1:1)]

Molecule	pEC50
6-(Isopropylamino)-N-phenylimidazo[1,2-a]pyridine-2-carboxamide and its hydrochloride (1:1) [Example 2]	8.80
